Experimental data taken from patent publication US4673671A, “Method for improving the absorption and effectiveness of a catecholamine compound” (SIMES Societa Italiana Medicinali e Sintetici S.p.A., priority 1984, dated 1987).

Assays:
[1] = system: renal blood flow and renal vascular resistances; experiment: Cardiovascular parameters (renal blood flow and renal vascular resistances) in anesthetized dogs, intraduodenal administration; type: in vivo, dog; settings: for selectivity and duration of renal effect (in words) / duration of effects on renal blood flow and resistances: 5 mg/kg; for renal vasodilating effect (in words): comparison of N-methyldopamine 4-O-dihydrogenphosphate with N-methyldopamine
Procedure: The activity of N-methyldopamine 4-O-dihydrogenphosphate on cardiovascular parameters in anesthetized dogs was compared with that of N-methyldopamine; both compounds were administered by intraduodenal route.

[2] = system: blood pressure; experiment: Blood pressure in spontaneous hypertensive rats, oral administration; type: in vivo, rat
Source text: N,N-di-n-propyldopamine 4-O-dihydrogenphosphate reduced blood pressure by 30-35% (p<0.01) when orally administered to spontaneous hypertensive rats at a dose of 0.29 mmoles/kg; the effect lasted five hours while N,N-di-n-propyl dopamine was ineffective at the same dosage and also at 0.58 mmoles/kg.

[3] = system: urine excretion; experiment: Urine excretion in normally hydrated rats, oral administration; type: in vivo, rat; settings: 0.29 mmoles/kg; for increase of urine excretion: p<0.05
Source text: These diuretic properties are useful in the therapy of hypertension and cardiac and renal failure.

[4] = anesthetized dogs, i.d., 0.005 mmoles/kg (1.25 mg/kg), n=6
[5] = anesthetized dogs, i.d., 0.04 mmoles/kg (10 mg/kg), n=7, **P <0.01
[6] = anesthetized dogs, i.d., 0.035 mmoles/kg (7.1 mg/kg), n=5

NCCc1ccc(OP(=O)(O)O)c(O)c1 [Dopamine 4-O-dihydrogenphosphate, dopamine 4-O-dihydrogenphosphate]
selectivity and duration of renal effect (in words) [1]: selective and long lasting | decrease in renal resistances ([1]; 5 mg/kg (0.02 mmoles/kg)): -15% | increase in renal blood flow ([1]; 5 mg/kg (0.02 mmoles/kg)): +14.5%

CCCN(CCC)CCc1ccc(O)c(O)c1 [N,N-di-n-propyl dopamine, N,N-di-n-propyldopamine, reference compound]
effect on blood pressure (in words) ([2]; 0.29 mmoles/kg): ineffective | effect on blood pressure (in words) ([2]; 0.58 mmoles/kg): ineffective

CCCN(CCC)CCc1ccc(OP(=O)(O)O)c(O)c1 [N,N-di-n-propyldopamine 4-O-dihydrogenphosphate]
duration of blood pressure reduction ([2]; 0.29 mmoles/kg): five | reduction of blood pressure ([2]; 0.29 mmoles/kg, p<0.01): 30-35%

CNCCc1ccc(O)c(OP(=O)(O)O)c1 [N-methyldopamine 3-O-dihydrogenphosphate]
increase of urine excretion [3]: 180%

CNCCc1ccc(OP(=O)(O)O)c(O)c1 [N-methyldopamine 4-O-dihydrogenphosphate]
duration of renal vasodilating action ([1]; anesthetized dogs, i.d.): about four | modification of other hemodynamic parameters ([1]; anesthetized dogs, i.d.): without any modification of other hemodynamic parameters | Maximum percentage variation of renal blood flow [1, 4]: +14.2% | Maximum percentage variation of renal vascular resistances [1, 4]: -11.2% | Maximum percentage variation of renal vascular resistances ([1]; anesthetized dogs, i.d., 0.01 mmoles/kg (2.5 mg/kg), n=6): -14.1% | Maximum percentage variation of renal blood flow ([1]; anesthetized dogs, i.d., 0.01 mmoles/kg (2.5 mg/kg), n=6, **P <0.01): +18.5% | Maximum percentage variation of renal blood flow ([1]; anesthetized dogs, i.d., 0.02 mmoles/kg (5 mg/kg), n=7, **P <0.01): +36.4% | Maximum percentage variation of renal vascular resistances ([1]; anesthetized dogs, i.d., 0.02 mmoles/kg (5 mg/kg), n=7, *P <0.05): -24.5% | Maximum percentage variation of renal blood flow [1, 5]: +31.7% | Maximum percentage variation of renal vascular resistances [1, 5]: -28.1% | renal vasodilating effect (in words) ([1]; anesthetized dogs, i.d.): improved effectiveness, either in terms of activity or duration of action or selective renal vasodilating action | absorption ([1]; i.d., compared with N-methyldopamine): improved absorption | increase of urine excretion [3]: 170%

CCOP(=O)(O)Oc1ccc(CCNC)cc1O [N-methyldopamine 4-O-ethyl-hydrogenphosphate]
duration of effects on renal blood flow and resistances [1]: over 5 hours | increase of renal blood flow ([1]; 5 mg/kg (0.018 mmoles/kg)): +46% | reduction of renal resistances ([1]; 5 mg/kg (0.018 mmoles/kg)): -32%

CNCCc1ccc(OP(=O)(O)OC)c(O)c1 [N-methyldopamine 4-O-methylhydrogenphosphate]
duration of effects on renal blood flow and resistances [1]: over 5 hours | increase of renal blood flow ([1]; 5 mg/kg (0.019 mmole/kg)): +26% | reduction of renal resistances ([1]; 5 mg/kg (0.019 mmole/kg)): -19%

CNCCc1ccc(O)c(O)c1 [N-methyldopamine, reference compound]
accompanying effect on blood pressure ([1]; anesthetized dogs, i.d.): undesired increase of blood pressure | accompanying effect on the heart ([1]; anesthetized dogs, i.d.): stimulation of the heart | duration of renal vasodilating action ([1]; anesthetized dogs, i.d.): two | Maximum percentage variation of renal blood flow [1, 6]: +14.9% | Maximum percentage variation of renal vascular resistances [1, 6]: -14% | renal vasodilating effect (in words) ([1]; anesthetized dogs, i.d.): smaller effect | effect on urine excretion (in words) [3]: ineffective

N[C@@H](CCC(=O)NCCc1ccc(OP(=O)(O)O)c(O)c1)C(=O)O [N^5-[2-(3,4-dihydroxyphenyl)-ethyl]-L-glutamine 4-O-dihydrogenphosphate]
selectivity and duration of renal effect (in words) [1]: selective and long lasting | decrease in renal resistances ([1]; 5 mg/kg (0.014 mmoles/kg)): -18% | increase in renal blood flow ([1]; 5 mg/kg (0.014 mmoles/kg)): +25%

NCCc1ccc(O)c(O)c1 [dopamine, 1-(3,4-dihydroxyphenyl)-2-amino-ethane, reference compound]
effect on renal blood flow and renal resistances (in words) ([1]; 10 mg/kg (0.053 mmoles/kg)): ineffective
